# Measured values as given in US20220306659A1, “COMPOUND INHIBITING AND INDUCING DEGRADATION OF EGFR AND ALK” (BEIJING TIDE PHARMACEUTICAL CO., LTD., priority 2019, published 2022).
# What was measured:
# EGFR^L858R/T790M/C797S = EGFR^L858R/T790M/C797S (Homo sapiens, UniProt P00533, C797S/L858R/T790M); experiment: EGFR inhibitory activity assay (TK-substrate-biotin/ATP, 665/615 ratio); format: biochemical; conditions: kinase inhibition
# Outline: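 HTRF kinase assay: enzyme preincubated with compound 10 min at room temperature, then reacted with biotinylated TK substrate and ATP for 40 min at room temperature.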
# [1] = target: Ba/F3(EGFR^L858R/T790M/C797S) cells (Homo sapiens, UniProt P00533, T790M/C797S/L858R, cells depend on it); experiment: Assay of activity on Ba/F3 cells (CTG, 72 h); format: cell-based; conditions: read-out: IC50 (nM) Ba/F3 (EGFR^L858R/T790M/C797S)
# Outline: (§1)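 Ba/F3 cells dependent on each EGFR triple mutant were exposed to 3-fold compound dilutions for 72 h at 37° C, 5% CO2, with CellTiter-Glo luminescence as the read-out.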
# ALK = ALK (Homo sapiens, UniProt Q9UM73); experiment: Assay of activity on ALK kinase; format: biochemical; conditions: kinase inhibition
# Sequence of ALK (Q9UM73 19-1620): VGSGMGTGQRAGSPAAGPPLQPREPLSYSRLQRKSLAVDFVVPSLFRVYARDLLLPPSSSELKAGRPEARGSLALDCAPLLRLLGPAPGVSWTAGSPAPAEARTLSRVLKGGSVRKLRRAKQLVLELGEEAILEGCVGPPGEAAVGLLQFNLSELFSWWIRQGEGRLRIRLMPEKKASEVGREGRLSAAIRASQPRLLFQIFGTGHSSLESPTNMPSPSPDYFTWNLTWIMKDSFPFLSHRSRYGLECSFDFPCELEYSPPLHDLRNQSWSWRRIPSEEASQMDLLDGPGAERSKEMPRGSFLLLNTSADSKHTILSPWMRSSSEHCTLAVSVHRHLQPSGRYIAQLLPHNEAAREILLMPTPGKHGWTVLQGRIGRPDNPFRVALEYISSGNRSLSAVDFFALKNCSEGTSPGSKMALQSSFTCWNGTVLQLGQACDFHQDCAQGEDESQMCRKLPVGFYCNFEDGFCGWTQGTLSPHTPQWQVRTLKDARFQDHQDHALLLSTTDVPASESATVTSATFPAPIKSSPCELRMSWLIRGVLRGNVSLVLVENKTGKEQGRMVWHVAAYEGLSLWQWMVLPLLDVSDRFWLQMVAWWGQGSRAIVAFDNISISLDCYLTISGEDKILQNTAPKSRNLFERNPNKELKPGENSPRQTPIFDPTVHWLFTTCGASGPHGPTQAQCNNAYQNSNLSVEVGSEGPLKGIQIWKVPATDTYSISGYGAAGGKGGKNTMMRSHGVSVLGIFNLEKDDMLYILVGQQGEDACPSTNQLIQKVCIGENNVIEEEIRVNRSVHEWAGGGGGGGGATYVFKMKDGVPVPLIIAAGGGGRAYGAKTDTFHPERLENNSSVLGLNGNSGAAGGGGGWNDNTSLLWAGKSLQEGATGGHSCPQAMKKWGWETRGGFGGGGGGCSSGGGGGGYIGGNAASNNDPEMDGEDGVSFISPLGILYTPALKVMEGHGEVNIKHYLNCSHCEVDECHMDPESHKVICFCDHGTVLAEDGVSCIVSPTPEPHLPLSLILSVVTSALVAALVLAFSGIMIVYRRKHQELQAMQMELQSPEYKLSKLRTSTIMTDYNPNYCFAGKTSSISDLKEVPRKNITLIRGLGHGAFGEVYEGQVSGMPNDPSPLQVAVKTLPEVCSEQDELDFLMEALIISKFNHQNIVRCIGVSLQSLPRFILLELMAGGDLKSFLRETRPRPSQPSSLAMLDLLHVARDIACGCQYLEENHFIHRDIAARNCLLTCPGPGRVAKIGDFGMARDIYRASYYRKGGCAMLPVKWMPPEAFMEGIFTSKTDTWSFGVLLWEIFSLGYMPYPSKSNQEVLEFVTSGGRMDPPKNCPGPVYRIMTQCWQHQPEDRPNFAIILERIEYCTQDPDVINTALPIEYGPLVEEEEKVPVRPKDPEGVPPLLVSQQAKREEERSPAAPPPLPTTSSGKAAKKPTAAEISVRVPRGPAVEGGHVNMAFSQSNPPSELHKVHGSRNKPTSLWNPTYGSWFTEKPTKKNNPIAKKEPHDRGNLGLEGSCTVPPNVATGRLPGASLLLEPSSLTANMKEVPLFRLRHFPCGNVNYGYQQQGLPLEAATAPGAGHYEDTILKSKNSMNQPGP
# Protocol: (§2) Assay of activity on ALK kinase
# (§3) (1) A compound stock solution was prepared;
# (§4) (2) The compound stock solution was diluted 3× to obtain a compound dilution;
# (§5) (5) 5 μl of the 2× kinase working solution was added to the reaction plate, centrifuged at 1,000 rpm for 1 min, and incubated at 25° C. for 15 min;
# (§6) (7) 5 μl of the TK-substrate-biotin and ATP (the mixture prepared in step (6)) was added to initiate the reaction;
# (§7) (8) The mixture was centrifuged at 1,000 g for 30 s; the plate was sealed, and incubated at 25° C. for 60 min;
# (§8) (11) The mixture was centrifuged at 1,000 g for 1 min, and incubated at 25° C. for 60 min;
# (§9) Formula of inhibition rate (%): […]
# (§10) The nonlinear regression curve (dose response-variable slope) between the value of inhibition rate (%) and the logarithm of compound concentration was fitted with graphpad prism 8.0, the effect dose curve of compound was drawn, and the IC50 value was calculated.
# (§11) Y=Bottom+(Top−Bottom)/(1+10^((LogIC50−X)*Hill Slope))
# (§12) X-axis: logarithm of compound concentration; Y axis: inhibition rate ([…])
# Ba/F3(EML4-ALK) cells = target: T1, Ba/F3(EML4-ALK) cells (Homo sapiens, UniProt Q9UM73); experiment: Assay of activity on Ba/F3(EML4-ALK) cells (CTG, 72 h); format: cell-based; conditions: read-out: IC50 (nM) Ba/F3(EML4-ALK)
# T1 construct: fused on or other part: Q9HC35 (Echinoderm microtubule-associated protein-like 4)
# T1 sequence (Q9UM73 whole entry, change not shown, the tested form may be a part): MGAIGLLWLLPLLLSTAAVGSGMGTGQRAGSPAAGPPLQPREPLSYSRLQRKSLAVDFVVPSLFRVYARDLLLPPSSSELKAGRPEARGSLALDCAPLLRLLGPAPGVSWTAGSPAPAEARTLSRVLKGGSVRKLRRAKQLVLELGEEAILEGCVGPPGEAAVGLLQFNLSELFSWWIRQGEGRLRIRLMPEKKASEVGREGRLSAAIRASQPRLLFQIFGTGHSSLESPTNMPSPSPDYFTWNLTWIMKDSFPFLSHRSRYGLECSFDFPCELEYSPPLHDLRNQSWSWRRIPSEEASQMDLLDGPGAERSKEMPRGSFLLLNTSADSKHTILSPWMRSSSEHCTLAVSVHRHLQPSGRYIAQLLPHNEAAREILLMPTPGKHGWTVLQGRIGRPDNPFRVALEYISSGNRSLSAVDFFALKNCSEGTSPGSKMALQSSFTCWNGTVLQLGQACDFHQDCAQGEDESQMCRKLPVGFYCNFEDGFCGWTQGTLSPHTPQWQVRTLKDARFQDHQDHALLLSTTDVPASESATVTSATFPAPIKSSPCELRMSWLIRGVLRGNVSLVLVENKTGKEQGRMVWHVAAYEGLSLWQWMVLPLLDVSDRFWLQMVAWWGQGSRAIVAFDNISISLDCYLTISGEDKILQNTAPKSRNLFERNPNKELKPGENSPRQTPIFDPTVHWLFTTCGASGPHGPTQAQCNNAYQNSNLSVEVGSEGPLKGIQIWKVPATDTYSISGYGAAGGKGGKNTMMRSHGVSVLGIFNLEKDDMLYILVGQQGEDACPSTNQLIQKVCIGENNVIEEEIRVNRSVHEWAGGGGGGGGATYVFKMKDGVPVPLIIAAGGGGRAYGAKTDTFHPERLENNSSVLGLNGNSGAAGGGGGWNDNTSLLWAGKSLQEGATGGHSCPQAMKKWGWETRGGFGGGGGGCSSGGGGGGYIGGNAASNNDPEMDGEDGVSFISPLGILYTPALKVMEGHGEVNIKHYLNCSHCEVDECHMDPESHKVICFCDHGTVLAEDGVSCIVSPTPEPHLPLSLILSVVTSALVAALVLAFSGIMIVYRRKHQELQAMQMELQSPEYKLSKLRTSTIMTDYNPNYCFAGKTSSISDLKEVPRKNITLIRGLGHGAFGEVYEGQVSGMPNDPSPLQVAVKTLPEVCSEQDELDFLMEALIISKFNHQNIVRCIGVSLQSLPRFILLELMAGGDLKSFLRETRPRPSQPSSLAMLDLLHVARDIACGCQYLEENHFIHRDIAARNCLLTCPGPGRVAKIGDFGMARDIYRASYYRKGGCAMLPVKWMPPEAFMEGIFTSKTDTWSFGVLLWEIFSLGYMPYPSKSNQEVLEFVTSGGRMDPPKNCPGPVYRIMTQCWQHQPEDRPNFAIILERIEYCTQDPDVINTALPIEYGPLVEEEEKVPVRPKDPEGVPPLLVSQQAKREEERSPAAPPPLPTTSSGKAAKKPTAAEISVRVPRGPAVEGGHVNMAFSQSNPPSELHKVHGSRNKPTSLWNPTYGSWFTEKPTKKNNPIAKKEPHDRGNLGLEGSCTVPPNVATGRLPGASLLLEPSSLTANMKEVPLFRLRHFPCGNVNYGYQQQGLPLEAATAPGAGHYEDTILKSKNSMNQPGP
# Protocol: Assay of activity on Ba/F3(EML4-ALK) cells
# (1) Ba/F3(EML4-ALK) cells were cultured according to the requirements of ATCC, incubated in an incubator at 37° C. and 5% CO2, and analyzed by index; cells with viability of >90% can be used in the assay, and cells were seeded in a 384-well plate (PerkinElmer, 6007680) with 700 cells/well, 30 μl/well.
# (2) A compound stock solution was prepared, and diluted 3× to obtain a compound dilution; 30 nL of the serial dilution was added to a 384-well plate (784075, Greiner) by Echo 550, and cells were incubated in an incubator at 37° C. and 5% CO2 for 72 h.
# (3) 30 μL of CTG was added to each well, and the 384-well plate was shaken on a Plate shaker (QILINBEIER, QB-9002); the 384-well plate was incubated in the dark at 37° C. and 5% CO2 for 30 min, and the chemiluminescence value was read by Envision (PerkinElmer, EnVision 2104).
# The percent inhibition rate (% inhibition) was calculated by the formula below
# LUMcmpd: Luminescence value of assay compound.
# LUMpositive: Average LUM value of positive drug at a concentration of 10 μM.
# LUM^vehicle: Average LUM value of negative control group without drug treatment.
# as §10
# Y=Bottom+(Top−Bottom)/(1+10^((LogIC50−X)*HillSlope))
# X-axis: logarithm of compound concentration; Y axis: inhibition rate (% inhibition).
# ALK^G1202R = ALK^G1202R (Homo sapiens, UniProt Q9UM73, G1202R); experiment: Assay of activity on ALK kinase; format: biochemical; conditions: kinase inhibition
# Sequence of ALK^G1202R (Q9UM73 19-1620 G1202R): as the sequence (Q9UM73 19-1620) above, with G1184R counted along it
# Protocol: as §2, §3, §4, §5, §6, §7, §8, §9, §10, §11, §12
# [2] = target: Ba/F3(EGFR^Del19/T790M/C797S) cells (Homo sapiens, UniProt P00533, DEL746-750/T790M/C797S, cells depend on it); experiment: Assay of activity on Ba/F3 cells (CTG, 72 h); format: cell-based; conditions: read-out: IC50 (nM) Ba/F3 (EGFR^Del19/T790M/C797S)
# Outline: as §1
# Sequence of EGFR^L858R/T790M/C797S (P00533 25-1210 T790M/C797S/L858R): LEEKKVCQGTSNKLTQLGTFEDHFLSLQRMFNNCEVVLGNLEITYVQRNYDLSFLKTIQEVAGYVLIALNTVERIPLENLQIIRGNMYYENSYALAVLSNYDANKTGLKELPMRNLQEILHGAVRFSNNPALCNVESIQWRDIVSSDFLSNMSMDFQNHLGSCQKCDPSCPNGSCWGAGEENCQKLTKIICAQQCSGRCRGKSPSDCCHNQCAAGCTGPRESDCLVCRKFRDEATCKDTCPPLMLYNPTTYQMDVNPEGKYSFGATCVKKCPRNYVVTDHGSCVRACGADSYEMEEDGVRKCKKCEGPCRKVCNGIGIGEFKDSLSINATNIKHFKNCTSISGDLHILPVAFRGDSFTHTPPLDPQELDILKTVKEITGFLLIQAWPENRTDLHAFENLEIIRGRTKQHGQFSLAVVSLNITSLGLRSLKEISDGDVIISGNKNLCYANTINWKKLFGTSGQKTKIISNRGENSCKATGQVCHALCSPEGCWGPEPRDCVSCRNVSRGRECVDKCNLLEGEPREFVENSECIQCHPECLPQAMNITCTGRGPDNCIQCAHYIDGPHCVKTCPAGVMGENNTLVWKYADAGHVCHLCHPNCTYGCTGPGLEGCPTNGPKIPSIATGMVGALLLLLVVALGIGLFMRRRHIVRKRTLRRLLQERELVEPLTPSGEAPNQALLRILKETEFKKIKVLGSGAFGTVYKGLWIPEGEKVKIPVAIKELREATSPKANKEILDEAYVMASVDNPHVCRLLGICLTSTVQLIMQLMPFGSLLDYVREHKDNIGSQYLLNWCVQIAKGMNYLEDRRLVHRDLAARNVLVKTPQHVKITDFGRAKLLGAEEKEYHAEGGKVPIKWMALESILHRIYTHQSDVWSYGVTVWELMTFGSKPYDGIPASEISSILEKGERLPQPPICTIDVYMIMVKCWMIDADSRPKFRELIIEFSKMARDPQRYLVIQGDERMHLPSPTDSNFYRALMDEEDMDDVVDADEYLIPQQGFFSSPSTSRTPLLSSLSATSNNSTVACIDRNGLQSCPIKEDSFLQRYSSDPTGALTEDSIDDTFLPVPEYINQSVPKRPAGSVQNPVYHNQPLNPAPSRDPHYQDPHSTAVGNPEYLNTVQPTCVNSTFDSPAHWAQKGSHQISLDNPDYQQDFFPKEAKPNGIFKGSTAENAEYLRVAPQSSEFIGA
Structure (SMILES),IC50 (EGFR^L858R/T790M/C797S) [nM],GI50 [1] [nM],IC50 (ALK) [nM],GI50 (Ba/F3(EML4-ALK) cells) [nM],IC50 (ALK^G1202R) [nM],GI50 [2] [nM]
"COc1cc(N2CCC(N3CCN(CCCCCC#Cc4cccc5c4CN(C4CCC(=O)NC4=O)C5=O)CC3)CC2)ccc1Nc1ncc(Cl)c(Nc2ccccc2P(C)(C)=O)n1 (centres unmarked) [Compound C1, 3-(4-(7-(4-(1-(4-((5-chloro-4-((2-(dimethylphosphoryl)phenyl)amino)pyrimidin-2-yl)amino)-3-methoxyphenyl)piperidin-4-yl)piperazin-1-yl)hept-1-yn-1-yl)-1-oxoisoindolin-2-yl)piperidine-2,6-dione]",1 to 100,1 to 100,1 to 100,1 to 100,,
"COc1cc(N2CCC(N3CCN(CC(=O)N4CCC(CCOc5cccc6c5C(=O)N(C5CCC(=O)NC5=O)C6=O)CC4)CC3)CC2)ccc1Nc1ncc(Cl)c(Nc2ccccc2P(C)(C)=O)n1 (centres unmarked) [Compound C4, 4-(2-(1-(2-(4-(1-(4-((5-chloro-4-((2-(dimethylphosphoryl)phenyl)amino)pyrimidin-2-yl)amino)-3-methoxyphenyl)piperidin-4-yl)piperazin-1-yl)acetyl)piperidin-4-yl)ethoxy)-2-(2,6-dioxopiperidin-3-yl)isoindoline-1,3-dione]",101 to 200,101 to 200,1 to 100,,101 to 200,
"COc1cc(N2CCC(N3CCN(C(=O)C(C)(C)COC(=O)COc4cccc5c4C(=O)N(C4CCC(=O)NC4=O)C5=O)CC3)CC2)ccc1Nc1ncc(Cl)c(Nc2ccccc2P(C)(C)=O)n1 (centres unmarked) [Compound C6, 2-((2-(2,6-dioxopiperidin-3-yl)-1,3-dioxoisoindolin-4-yl)oxy)acetic acid 3-(4-(1-(4-((5-Chloro-4-((2-(dimethylphosphoryl)phenyl)amino)pyrimidin-2-yl)amino)-3-methoxyphenyl)piperidin-4-yl)piperazin-1-yl)-2,2-dimethyl-3-oxopropyl ester]",101 to 200,201 to 300,1 to 100,,1 to 100,
"COc1cc(N2CCC(N3CCN(CC(=O)N4CC(Oc5cccc6c5C(=O)N(C5CCC(=O)NC5=O)C6=O)C4)CC3)CC2)ccc1Nc1ncc(Cl)c(Nc2ccccc2P(C)(C)=O)n1 (centres unmarked) [Compound C93, 4-((1-(2-(4-(1-(4-((5-chloro-4-((2-(dimethylphosphoryl)phenyl)amino)pyrimidin-2-yl)amino)-3-methoxyphenyl)piperidin-4-yl)piperazin-1-yl)acetyl)azetidin-3-yl)oxy)-2-(2,6-dioxopiperidin-3-yl)isoindoline-1,3-dione]",1 to 100,> 300,1 to 100,,1 to 100,
"COc1cc(N2CCC(N3CCN(CC(=O)N4CC(COc5cccc6c5C(=O)N(C5CCC(=O)NC5=O)C6=O)C4)CC3)CC2)ccc1Nc1ncc(Cl)c(Nc2ccccc2P(C)(C)=O)n1 (centres unmarked) [Compound C94, 4-((1-(2-(4-(1-(4-((5-chloro-4-((2-(dimethylphosphoryl)phenyl)amino)pyrimidin-2-yl)amino)-3-methoxyphenyl)piperidin-4-yl)piperazin-1-yl)acetyl)azetidin-3-yl)methoxy)-2-(2,6-dioxopiperidin-3-yl)isoindoline-1,3-dione]",1 to 100,> 300,1 to 100,,1 to 100,
"COc1cc(N2CCC(N3CCN(C(=O)CC4(CSCC(=O)Nc5cccc6c5C(=O)N(C5CCC(=O)NC5=O)C6=O)CC4)CC3)CC2)ccc1Nc1ncc(Cl)c(Nc2ccccc2P(C)(C)=O)n1 (centres unmarked) [Compound C103, 2-(((1-(2-(4-(1-(4-((5-chloro-4-((2-(dimethylphosphoryl)phenyl)amino)pyrimidin-2-yl)amino)-3-methoxyphenyl)piperidin-4-yl)piperazin-1-yl)-2-oxoethyl)cyclopropyl)methyl)thio)—N-(2-(2,6-dioxopiperidin-3-yl)-1,3-dioxoisoindolin-4-yl)acetamide]",201 to 300,,1 to 100,,> 300,
"COc1cc(N2CCC(N3CCN(CC4(COc5cccc6c5C(=O)N(C5CCC(=O)NC5=O)C6=O)CC4)CC3)CC2)ccc1Nc1ncc(Cl)c(Nc2ccccc2P(C)(C)=O)n1 (centres unmarked) [Compound C106, 4-((1-((4-(1-(4-((5-chloro-4-((2-(dimethylphosphoryl)phenyl)amino)pyrimidin-2-yl)amino)-3-methoxyphenyl)piperidin-4-yl)piperazin-1-yl)methyl)cyclopropyl)methoxy)-2-(2,6-dioxopiperidin-3-yl)isoindoline-1,3-dione]",1 to 100,> 300,1 to 100,,201 to 300,
"COc1cc(N2CCC(N3CCN(CC(=O)OCC4(COc5cccc6c5C(=O)N(C5CCC(=O)NC5=O)C6=O)CC4)CC3)CC2)ccc1Nc1ncc(Cl)c(Nc2ccccc2P(C)(C)=O)n1 (centres unmarked) [Compound C107, 2-(4-(1-(4-((5-chloro-4-((2-(dimethylphosphoryl)phenyl)amino)pyrimidin-2-yl)amino)-3-methoxyphenyl)piperidin-4-yl)piperazin-1-yl)acetate (1-(((2-(2,6-dioxopiperidin-3-yl)-1,3-dioxoisoindolin-4-yl)oxy)methyl)cyclopropyl)methyl ester]",1 to 100,101 to 200,1 to 100,,101 to 200,
"COc1cc(N2CCC(N3CCN(CC(=O)N4CCC[C@H]4COc4cccc5c4C(=O)N(C4CCC(=O)NC4=O)C5=O)CC3)CC2)ccc1Nc1ncc(Cl)c(Nc2ccccc2P(C)(C)=O)n1 (stereo partly drawn) [Compound C109, 4-(((S)-1-(2-(4-(1-(4-((5-chloro-4-((2-(dimethylphosphoryl)phenyl)amino)pyrimidin-2-yl)amino)-3-methoxyphenyl)piperidin-4-yl)piperazin-1-yl)acetyl)pyrrolidin-2-yl)methoxy)-2-(2,6-dioxopiperidin-3-yl)isoindoline-1,3-dione]",1 to 100,> 300,1 to 100,,1 to 100,
"COc1cc(N2CCC(N3CCN(CCCCCC#Cc4ccc5c(c4)CN(C4CCC(=O)NC4=O)C5=O)CC3)CC2)ccc1Nc1ncc(Cl)c(Nc2ccccc2P(C)(C)=O)n1 (centres unmarked) [Compound C190, 3-(5-(7-(4-(1-(4-((5-chloro-4-((2-(dimethylphosphoryl)phenyl)amino)pyrimidin-2-yl)amino)-3-methoxyphenyl)piperidin-4-yl)piperazin-1-yl)hept-1-yn-1-yl)-1-oxoisoindolin-2-yl)piperidine-2,6-dione]",,,1 to 100,1 to 100,201 to 300,1 to 100
"COc1cc(N2CCC(N3CCN(CCOCC#Cc4ccc5c(c4)CN(C4CCC(=O)NC4=O)C5=O)CC3)CC2)ccc1Nc1ncc(Cl)c(Nc2ccccc2P(C)(C)=O)n1 (centres unmarked) [Compound C193, 3-(5-(3-(2-(4-(1-(4-((5-chloro-4-((2-(dimethylphosphoryl)phenyl)amino)pyrimidin-2-yl)amino)-3-methoxyphenyl)piperidin-4-yl)piperazin-1-yl)ethoxy)prop-1-yn-1-yl)-1-oxoisoindolin-2-yl)piperidine-2,6-dione]",,,1 to 100,1 to 100,201 to 300,1 to 100
"COc1cc(N2CCC(N3CCN(CCCCCCC#Cc4ccc5c(c4)CN(C4CCC(=O)NC4=O)C5=O)CC3)CC2)ccc1Nc1ncc(Cl)c(Nc2ccccc2P(C)(C)=O)n1 (centres unmarked) [Compound C194, 3-(5-(8-(4-(1-(4-((5-chloro-4-((2-(dimethylphosphoryl)phenyl)amino)pyrimidin-2-yl)amino)-3-methoxyphenyl)piperidin-4-yl)piperazin-1-yl)oct-1-yn-1-yl)-1-oxoisoindolin-2-yl)piperidine-2,6-dione]",,,1 to 100,1 to 100,> 300,1 to 100
